Tests used:
Assay in all cases: radiometric filter-binding kinase assay, Kinase HotSpot
Conditions in all cases: compound 0.5 µM; ATP 10 µM
[1] = target: ADRBK1 (human) (UniProt P25098)
[2] = target: AKT3 (human) (UniProt Q9Y243)
[3] = target: ALK (human) (UniProt Q9UM73)
[4] = target: BLK (human) (UniProt P51451)
[5] = target: BRSK2 (human) (UniProt Q8IWQ3)
[6] = target: CAMK1 (human) (UniProt Q14012)
[7] = target: CDK4 CCND1 (human) (UniProt P24385+P11802)
[8] = target: CHEK1 (human) (UniProt O14757)
[9] = target: CLK2 (human) (UniProt P49760)
[10] = target: CSNK1E (human) (UniProt P49674)
[11] = target: CSNK1G1 (human) (UniProt Q9HCP0)
[12] = target: DDR2 (human) (UniProt Q16832)
[13] = target: DYRK3 (human) (UniProt O43781)
[14] = target: EPHB1 (human) (UniProt P54762)
[15] = target: HIPK1 (human) (UniProt Q86Z02)
[16] = target: IKBKE (human) (UniProt Q14164)
[17] = target: IRAK4 (human) (UniProt Q9NWZ3)
Sequence of IRAK4 (human) (Q9NWZ3 whole entry, looked up): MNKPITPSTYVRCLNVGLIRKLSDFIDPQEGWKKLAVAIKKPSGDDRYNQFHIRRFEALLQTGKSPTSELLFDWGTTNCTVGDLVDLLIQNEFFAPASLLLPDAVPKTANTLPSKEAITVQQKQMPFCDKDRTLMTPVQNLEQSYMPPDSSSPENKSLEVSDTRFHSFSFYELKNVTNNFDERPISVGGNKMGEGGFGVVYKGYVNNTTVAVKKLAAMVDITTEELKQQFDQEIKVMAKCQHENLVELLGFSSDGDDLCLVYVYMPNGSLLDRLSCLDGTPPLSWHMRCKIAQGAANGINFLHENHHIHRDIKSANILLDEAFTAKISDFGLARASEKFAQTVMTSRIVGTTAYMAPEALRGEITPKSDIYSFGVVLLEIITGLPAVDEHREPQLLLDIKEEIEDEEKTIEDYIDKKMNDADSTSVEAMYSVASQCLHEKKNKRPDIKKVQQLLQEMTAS

[18] = target: LTK (human) (UniProt P29376)
[19] = target: MAP2K1 (human) (UniProt Q02750)
[20] = target: MAP2K2 (human) (UniProt P36507)
[21] = system: MAP2K6 (human), P52564 [S207E/T211E]
[22] = target: MAP3K10 (human) (UniProt Q02779)
[23] = target: MAP3K14 (human) (UniProt Q99558)
Sequence of MAP3K14 (human) (Q99558 whole entry, looked up): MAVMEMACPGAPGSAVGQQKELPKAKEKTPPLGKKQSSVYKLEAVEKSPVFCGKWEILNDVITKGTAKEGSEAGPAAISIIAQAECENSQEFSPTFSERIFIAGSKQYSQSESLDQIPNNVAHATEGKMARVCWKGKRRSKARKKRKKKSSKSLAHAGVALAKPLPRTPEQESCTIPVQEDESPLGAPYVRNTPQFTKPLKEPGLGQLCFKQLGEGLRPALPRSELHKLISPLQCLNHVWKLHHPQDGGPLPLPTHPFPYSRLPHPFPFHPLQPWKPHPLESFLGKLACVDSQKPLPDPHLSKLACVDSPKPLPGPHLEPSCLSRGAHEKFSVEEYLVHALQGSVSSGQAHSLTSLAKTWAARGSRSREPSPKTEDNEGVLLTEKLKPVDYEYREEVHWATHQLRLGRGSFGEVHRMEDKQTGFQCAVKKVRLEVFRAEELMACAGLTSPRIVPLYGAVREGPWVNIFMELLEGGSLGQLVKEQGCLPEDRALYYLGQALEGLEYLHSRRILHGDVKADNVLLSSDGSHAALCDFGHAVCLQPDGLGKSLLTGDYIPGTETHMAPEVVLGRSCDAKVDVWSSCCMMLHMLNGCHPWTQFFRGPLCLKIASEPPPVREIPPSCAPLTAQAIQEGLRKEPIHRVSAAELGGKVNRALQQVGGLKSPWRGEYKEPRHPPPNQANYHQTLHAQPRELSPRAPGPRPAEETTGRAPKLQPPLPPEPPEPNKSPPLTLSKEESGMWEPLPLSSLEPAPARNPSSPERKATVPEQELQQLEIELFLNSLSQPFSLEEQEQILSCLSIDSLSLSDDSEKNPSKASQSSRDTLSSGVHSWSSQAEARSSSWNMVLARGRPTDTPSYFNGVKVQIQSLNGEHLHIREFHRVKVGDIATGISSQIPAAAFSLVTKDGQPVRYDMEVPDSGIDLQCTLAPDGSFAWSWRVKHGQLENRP

[24] = target: MAP3K8 (human) (UniProt P41279)
[25] = target: MAPK11 (human) (UniProt Q15759)
[26] = target: MUSK (human) (UniProt O15146)
Sequence of MUSK (human) (O15146 whole entry, looked up): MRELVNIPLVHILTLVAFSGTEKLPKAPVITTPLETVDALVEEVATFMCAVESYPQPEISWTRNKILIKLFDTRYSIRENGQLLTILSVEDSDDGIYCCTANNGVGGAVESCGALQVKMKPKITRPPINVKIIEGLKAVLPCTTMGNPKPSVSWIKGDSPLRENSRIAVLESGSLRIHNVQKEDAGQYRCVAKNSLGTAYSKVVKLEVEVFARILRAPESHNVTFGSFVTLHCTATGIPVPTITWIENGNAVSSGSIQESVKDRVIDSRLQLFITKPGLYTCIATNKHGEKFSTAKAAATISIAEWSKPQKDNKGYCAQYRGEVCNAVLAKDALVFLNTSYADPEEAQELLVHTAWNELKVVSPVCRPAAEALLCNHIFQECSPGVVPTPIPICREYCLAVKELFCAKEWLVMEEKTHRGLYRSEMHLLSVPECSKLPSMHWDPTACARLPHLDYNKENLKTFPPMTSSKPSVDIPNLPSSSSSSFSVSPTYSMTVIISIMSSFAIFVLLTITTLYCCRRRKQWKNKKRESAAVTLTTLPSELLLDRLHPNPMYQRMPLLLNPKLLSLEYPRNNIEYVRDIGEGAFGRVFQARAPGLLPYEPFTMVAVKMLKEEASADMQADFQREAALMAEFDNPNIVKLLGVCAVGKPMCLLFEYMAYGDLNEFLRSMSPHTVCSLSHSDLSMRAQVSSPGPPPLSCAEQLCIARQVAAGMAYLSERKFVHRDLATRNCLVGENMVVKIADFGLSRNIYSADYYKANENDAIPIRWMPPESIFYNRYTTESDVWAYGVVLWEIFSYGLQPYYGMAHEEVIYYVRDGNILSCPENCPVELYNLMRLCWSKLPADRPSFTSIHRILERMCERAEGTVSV

[27] = target: OXSR1 (human) (UniProt O95747)
[28] = target: PAK3 (human) (UniProt O75914)
[29] = target: PAK6 (human) (UniProt Q9NQU5)
[30] = target: PLK2 (human) (UniProt Q9NYY3)
[31] = target: PRKCI (human) (UniProt P41743)
[32] = target: PRKD3 (human) (UniProt O94806)
Sequence of PRKD3 (human) (O94806 whole entry, looked up): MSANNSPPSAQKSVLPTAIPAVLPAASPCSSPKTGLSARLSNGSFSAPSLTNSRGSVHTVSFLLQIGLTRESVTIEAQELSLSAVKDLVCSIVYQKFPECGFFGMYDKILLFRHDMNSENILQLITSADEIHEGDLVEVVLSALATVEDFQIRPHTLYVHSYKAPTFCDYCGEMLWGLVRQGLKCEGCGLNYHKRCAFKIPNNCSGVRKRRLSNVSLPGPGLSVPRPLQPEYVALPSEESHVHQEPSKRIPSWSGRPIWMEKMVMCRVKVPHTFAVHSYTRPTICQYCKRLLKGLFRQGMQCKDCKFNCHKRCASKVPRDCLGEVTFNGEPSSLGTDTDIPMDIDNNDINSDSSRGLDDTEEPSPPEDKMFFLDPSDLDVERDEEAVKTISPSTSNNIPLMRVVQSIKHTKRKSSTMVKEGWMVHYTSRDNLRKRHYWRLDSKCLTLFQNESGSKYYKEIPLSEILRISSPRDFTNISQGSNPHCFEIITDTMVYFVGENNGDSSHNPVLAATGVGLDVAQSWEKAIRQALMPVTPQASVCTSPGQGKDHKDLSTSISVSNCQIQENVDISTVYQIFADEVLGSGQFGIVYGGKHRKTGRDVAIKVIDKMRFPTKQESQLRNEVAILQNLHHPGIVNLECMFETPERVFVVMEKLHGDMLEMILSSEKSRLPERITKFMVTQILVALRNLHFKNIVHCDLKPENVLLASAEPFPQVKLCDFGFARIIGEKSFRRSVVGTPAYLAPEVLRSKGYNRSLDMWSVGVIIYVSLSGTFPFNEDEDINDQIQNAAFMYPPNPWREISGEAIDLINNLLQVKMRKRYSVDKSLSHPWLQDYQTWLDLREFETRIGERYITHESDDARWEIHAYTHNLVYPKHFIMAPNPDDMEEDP

[33] = target: PTK2B (human) (UniProt Q14289)
Sequence of PTK2B (human) (Q14289 whole entry, looked up): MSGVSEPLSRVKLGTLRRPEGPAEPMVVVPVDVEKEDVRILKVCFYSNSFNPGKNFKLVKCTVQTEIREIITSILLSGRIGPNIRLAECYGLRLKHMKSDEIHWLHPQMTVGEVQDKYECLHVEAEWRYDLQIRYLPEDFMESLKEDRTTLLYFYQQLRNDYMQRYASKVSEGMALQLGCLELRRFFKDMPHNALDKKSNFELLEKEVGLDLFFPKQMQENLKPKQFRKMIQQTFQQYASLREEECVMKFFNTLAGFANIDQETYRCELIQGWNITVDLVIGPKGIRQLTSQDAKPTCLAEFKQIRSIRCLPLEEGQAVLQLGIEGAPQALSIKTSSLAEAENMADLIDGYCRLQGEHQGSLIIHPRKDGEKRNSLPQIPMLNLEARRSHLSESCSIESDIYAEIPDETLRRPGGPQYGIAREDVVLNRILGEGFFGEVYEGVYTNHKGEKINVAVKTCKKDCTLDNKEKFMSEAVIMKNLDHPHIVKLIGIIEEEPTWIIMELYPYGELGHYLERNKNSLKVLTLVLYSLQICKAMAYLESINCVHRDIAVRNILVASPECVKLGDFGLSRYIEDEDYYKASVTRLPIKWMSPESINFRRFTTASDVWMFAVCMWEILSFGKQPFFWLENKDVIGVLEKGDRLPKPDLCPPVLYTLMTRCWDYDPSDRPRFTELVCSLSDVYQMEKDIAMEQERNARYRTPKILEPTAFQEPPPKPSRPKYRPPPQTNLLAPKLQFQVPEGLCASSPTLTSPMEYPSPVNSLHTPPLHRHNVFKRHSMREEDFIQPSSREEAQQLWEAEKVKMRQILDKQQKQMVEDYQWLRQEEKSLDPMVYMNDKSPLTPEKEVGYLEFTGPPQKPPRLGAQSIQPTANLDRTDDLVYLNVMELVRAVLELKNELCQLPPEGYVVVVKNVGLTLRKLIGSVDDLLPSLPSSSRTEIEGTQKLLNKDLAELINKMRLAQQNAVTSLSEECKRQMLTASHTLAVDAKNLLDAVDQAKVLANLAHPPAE

[34] = target: ROCK1 (human) (UniProt Q13464)
[35] = target: ROCK2 (human) (UniProt O75116)
[36] = target: RPS6KB1 (human) (UniProt P23443)
[37] = target: SIK2 (human) (UniProt Q9H0K1)
[38] = target: SRC (human) (UniProt P12931)
[39] = target: STK16 (human) (UniProt O75716)
[40] = target: STK17A (human) (UniProt Q9UEE5)
[41] = target: STK4 (human) (UniProt Q13043)
[42] = target: TSSK1B (human) (UniProt Q9BXA7)
Sequence of TSSK1B (human) (Q9BXA7 whole entry, looked up): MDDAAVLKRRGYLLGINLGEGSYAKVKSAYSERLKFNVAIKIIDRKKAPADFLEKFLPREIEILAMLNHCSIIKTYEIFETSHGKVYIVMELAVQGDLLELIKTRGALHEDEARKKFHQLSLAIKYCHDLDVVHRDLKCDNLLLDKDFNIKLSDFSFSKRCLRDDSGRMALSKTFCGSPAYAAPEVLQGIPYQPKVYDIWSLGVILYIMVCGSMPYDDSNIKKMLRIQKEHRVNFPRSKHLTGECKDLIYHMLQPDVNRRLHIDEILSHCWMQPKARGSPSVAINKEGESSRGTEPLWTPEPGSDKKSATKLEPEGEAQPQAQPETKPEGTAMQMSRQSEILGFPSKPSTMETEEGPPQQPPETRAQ

Sequence of CAMK1 (human) (Q14012 whole entry, looked up): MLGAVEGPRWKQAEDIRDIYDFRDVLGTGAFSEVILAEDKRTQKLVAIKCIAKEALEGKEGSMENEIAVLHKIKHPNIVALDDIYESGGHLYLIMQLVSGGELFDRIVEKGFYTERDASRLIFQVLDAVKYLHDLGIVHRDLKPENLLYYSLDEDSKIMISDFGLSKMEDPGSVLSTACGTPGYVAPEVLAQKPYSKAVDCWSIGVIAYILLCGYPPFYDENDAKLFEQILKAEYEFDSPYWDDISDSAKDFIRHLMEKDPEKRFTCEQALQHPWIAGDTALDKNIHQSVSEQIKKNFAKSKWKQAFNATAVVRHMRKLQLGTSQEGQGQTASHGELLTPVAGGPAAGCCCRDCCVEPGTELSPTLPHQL

In the case of `CN(C)c1ccc(/C=C2\C(=O)Nc3ccccc32)cc1`, the residual activity [1] is reported as 101%, the residual activity [2] is reported as 103% and the residual activity [3] is reported as 99.7%. For the same compound, the residual activity [4] was 99.2%, the residual activity [5] was 93% and the residual activity [6] was 104%. It also gave a residual activity [7] of 97.7%, a residual activity [8] of 98.2% and a residual activity [9] of 99.7%. It also gave a residual activity [10] of 57.2%, a residual activity [11] of 93% and a residual activity [12] of 103%. It also gave a residual activity [13] of 99.5%, a residual activity [14] of 102% and a residual activity [15] of 103%. The residual activity [16] was 98.2%, the residual activity [17] was 104% and the residual activity [18] was 96.8%. The residual activity [19] was 97.8%, the residual activity [20] was 99.4% and the residual activity [21] was 94.7%. For the same compound, the residual activity [22] was 96.6%, the residual activity [23] was 67.7% and the residual activity [24] was 99.6%. The residual activity [25] was 93.5%, the residual activity [26] was 96.4% and the residual activity [27] was 106%. The residual activity [28] was 99%, the residual activity [29] was 96.9% and the residual activity [30] was 111%. For the same compound, the residual activity [31] was 101%, the residual activity [32] was 99.2% and the residual activity [33] was 94.5%. For the same compound, the residual activity [34] was 98.3%, the residual activity [35] was 95.2% and the residual activity [36] was 97.1%. For the same compound, the residual activity [37] was 101%, the residual activity [38] was 102% and the residual activity [39] was 87.9%. It also gave a residual activity [40] of 93.8%, a residual activity [41] of 93.2% and a residual activity [42] of 102%.
With `CC(C)(C)c1cc(C=C(C#N)C#N)cc(Br)c1O` the residual activity [1] was 83.7%, the residual activity [2] was 111% and the residual activity [3] was 97.9%. For the same compound, the residual activity [4] was 97.9%, the residual activity [5] was 94.5% and the residual activity [6] was 97.5%. The residual activity [7] was 115%, the residual activity [8] was 100% and the residual activity [9] was 104%. For the same compound, the residual activity [10] was 92.1%, the residual activity [11] was 106% and the residual activity [12] was 105%. It also gave a residual activity [13] of 102%, a residual activity [14] of 114% and a residual activity [15] of 104%. It also gave a residual activity [16] of 86.8%, a residual activity [17] of 182% and a residual activity [18] of 96.5%. For the same compound, the residual activity [19] was 90.8%, the residual activity [20] was 85.8% and the residual activity [21] was 107%. It also gave a residual activity [22] of 100%, a residual activity [23] of 97.3% and a residual activity [24] of 104%. For the same compound, the residual activity [25] was 100%, the residual activity [26] was 103% and the residual activity [27] was 98%. For the same compound, the residual activity [28] was 96.9%, the residual activity [29] was 101% and the residual activity [30] was 92.6%. The residual activity [31] was 100%, the residual activity [32] was 92.7% and the residual activity [33] was 99.3%. The residual activity [34] was 82.9%, the residual activity [35] was 95.6% and the residual activity [36] was 91.3%. For the same compound, the residual activity [37] was 115%, the residual activity [38] was 87.4% and the residual activity [39] was 99.2%. For the same compound, the residual activity [40] was 92.3%, the residual activity [41] was 90.5% and the residual activity [42] was 95.6%.
Work on `N#C/C(=C\c1ccc(O)c(O)c1)C(=O)NCc1ccccc1` yielded a residual activity [1] of 96.6%, a residual activity [2] of 90.8% and a residual activity [3] of 105%. The residual activity [4] was 95.6%, the residual activity [5] was 99.3% and the residual activity [6] was 93%. The residual activity [7] was 109%, the residual activity [8] was 89.2% and the residual activity [9] was 110%. For the same compound, the residual activity [10] was 86.3%, the residual activity [11] was 102% and the residual activity [12] was 97.2%. The residual activity [13] was 99.6%, the residual activity [14] was 87.4% and the residual activity [15] was 101%. The residual activity [16] was 105%, the residual activity [17] was 93.7% and the residual activity [18] was 91.4%. It also gave a residual activity [19] of 94%, a residual activity [20] of 105% and a residual activity [21] of 127%. The residual activity [22] was 100%, the residual activity [23] was 109% and the residual activity [24] was 98.1%. For the same compound, the residual activity [25] was 98.7%, the residual activity [26] was 97.9% and the residual activity [27] was 101%. For the same compound, the residual activity [28] was 101%, the residual activity [29] was 99.4% and the residual activity [30] was 105%. It also gave a residual activity [31] of 96.4%, a residual activity [32] of 90.2% and a residual activity [33] of 92.6%. It also gave a residual activity [34] of 99.7%, a residual activity [35] of 94% and a residual activity [36] of 92.8%. It also gave a residual activity [37] of 99.7%, a residual activity [38] of 94.8% and a residual activity [39] of 99.1%. For the same compound, the residual activity [40] was 98.8%, the residual activity [41] was 95.9% and the residual activity [42] was 90.2%.

Reference: the kinase profiling compilation of Christmann-Franck et al. (2016)
